These results are taken from patent US6489535B1, “Non-mammalian transgenic animal having an adult onset neurodegenerative phenotype” (priority 1999, dated 2002).

In data set [1] the test system is AON mutant fly strain. The experiment in a line: whole plant or invertebrate. Type of data set: in vivo, Drosophila melanogaster. The following applies: for Phenotype AON + E: larva fed .5 μg/ml estrogen, >90% of 100 flies. Here is the method: (§1) Each compound was prepared over a range of dilutions and each was tested for the activity of alleviating the adult onset neurodegeneration condition. The compound dilutions were uptaken by either the larva or adult flies. The compound dilutions were mixed into the nutrient media and this served as the food/water source for either larva or flies. The adult onset neurodegeneration symptoms and their timelines were monitored for each compound dilution and compared to the no treatment control. Compounds examined here included: beta-estradiol, zinc chloride, sodium chloride, water, chocolate, and phosphate buffered saline.
In addition, compounds were also tested in the AON mutant fly strain that were known not to influence human AON conditions. Finally, a complex mixture with unknown influence on human AON conditions was tested in the AON mutant fly strain.

In data set [2] the test system is wild-type adult flies. The experiment in a line: Wild-type flies fed estrogen, phenotype by adult age. Note: key: None = normal adult fly; WC = loss of wing control; WP = wings paralyzed; C = loss of coordination and locomotion capabilities; L = flies stop uptaking liquid; D = death. The class given is in vivo, Drosophila melanogaster. The note with it: larva fed .5 μg/ml estrogen. As for the experimental part:
as §1

The mark [3] stands for this setting: Drosophila melanogaster, po, read-out: S increased (S = AON symptom free adult time span).

Where two headings read alike, the source gives them in different places.
Throughout, for Phenotype AON + E: key: None = normal adult fly; WC = loss of wing control; WP = wings paralyzed; C = loss of coordination and locomotion capabilities; L = flies stop uptaking liquid; D = death.

On to `Cc1c(C)c2c(c(C)c1O)CC[C@@](C)(CCC[C@H](C)CCC[C@H](C)CCCC(C)C)O2` [Alpha Tocopherol], for which, in data set [1] (dose 1 mg/ml), the L.D. result is reported as “L.D. 30,”. Also, in data set [1] (dose 1 mg/ml, escapers), the “D increased (D = life span)” value was “increased 33%” and the “S increased (S = AON symptom free adult time span)” value is 200%, D.

For `CN1[C@@H]2CC[C@H]1C[C@@H](OC(c1ccccc1)c1ccccc1)C2` [Benztropine], in data set [1] (setting [3]), the change in vivo at 0.023 µg/mL came to 400%, the change in vivo at 0.23 µg/mL was found to be 300% and the change in vivo at 23 µg/mL is 500%. In addition, the “D increased (D = life span)” value in data set [1] (dose .000023 mg/ml) is on record as 33%. In addition, the “D increased (D = life span)” value in data set [1] (dose .00023 mg/ml) is given as 17%. In addition, the “L.D., AON class” value in data set [1] (dose .023 mg/ml, AON class) is “L.D. 95,”. Besides, the L.D. entry in data set [1] (dose .23 mg/ml) is on record as “L.D. 100”.

Regarding `CC(C)C[C@H]1C(=O)N2CCC[C@H]2[C@]2(O)O[C@](NC(=O)[C@@H]3C=C4c5cccc6[nH]c(Br)c(c56)C[C@H]4N(C)C3)(C(C)C)C(=O)N12` [Bromocriptine], in data set [1] (Drosophila melanogaster, po, dose .01 mg/ml, read-out: S increased (S = AON symptom free adult time span)), the change in vivo at 10 µg/mL amounted to 33%. For the same compound, the L.D. result in data set [1] (dose .1 mg/ml) is listed as “L.D. 100”.

On to `CN1C(=O)CN=C(c2ccccc2)c2cc(Cl)ccc21` [Diazepam], for which, in data set [1] (AON mutant fly strain, Drosophila melanogaster, in vivo), the L.D. entry is recorded as “L.D. 100”. Further, the “result (effect on AON phenotype)” value in data set [1] (in vivo) was “No Effect”.

For `C[C@]12N[C@H](Cc3ccccc31)c1ccccc12` [Dizocilipine], in data set [1] (dose .00006 mg/ml), the “S increased (S = AON symptom free adult time span)” value is 17%. Besides, the AON symptoms delayed entry in data set [1] (dose .0006 mg/ml) is recorded as “delayed 2 days”. In data set [1] (dose .06 mg/ml), the AON growth result is listed as “delayed” and the “result (effect on AON phenotype)” value is listed as “No”. Further, the L.D. entry in data set [1] (in vivo) was “L.D. 100”.

In the case of `N[C@@H](Cc1ccc(O)c(O)c1)C(=O)O` [Levodopa], in data set [1] (setting [3]), the change in vivo at 0.15 µg/mL amounted to 100%.

For the compound `CCN(CC)C(=O)N[C@H]1C=C2c3cccc4[nH]cc(c34)C[C@H]2N(C)C1` [Lisuride], the change in vivo at 2 µg/mL in data set [1] (Drosophila melanogaster, po, dose .002 mg/ml, read-out: S increased (S = AON symptom free adult time span)) stood at 100%. The L.D. result in data set [1] (dose 2 mg/ml) is “L.D. 100”; in data set [1] (dose .002 mg/ml), “L.D. 60, S”; in data set [1] (dose .02 mg/ml, (no AON flies)), “L.D. 99 (no”; in data set [1] (dose .2 mg/ml), “L.D. 100”.

For `COc1ccc2[nH]cc(CCNC(C)=O)c2c1` [Melatonin], in data set [1] (dose 5 mg/ml), the L.D. result was “L.D. 100”. Also, the “result (effect on AON phenotype)” value in data set [1] (dose .0005 mg/ml), in data set [1] (dose .005 mg/ml), in data set [1] (dose .05 mg/ml) and in data set [1] (dose .5 mg/ml) was “No Effect” throughout.

As for `NC(=O)c1cccnc1` [Nicotinamide], the change in vivo at 5000 µg/mL in data set [1] (setting [3]) was 100%. Also, the L.D. result in data set [1] (dose 5 mg/ml) is “L.D. 90, S”.

Take `CCCn1cnc2c1c(=O)n(CCCCC(C)=O)c(=O)n2C` [Propentofylline]: in data set [1] (setting [3]), the change in vivo at 5000 µg/mL was 200%. Further, in data set [1] (dose 5 mg/ml), the L.D. result was “L.D. 80,”. The “D increased (D = life span)” value in data set [1] (dose 5 mg/ml, escapers) is on record as 17%.

Take `Nc1nc2ccc(OC(F)(F)F)cc2s1` [Riluzole]: the change in vivo at 10 µg/mL in data set [1] (setting [3]) was found to be 100%. Moreover, in data set [1] (dose .01 mg/ml), the “D increased (D = life span)” value is given as “increased 17%”.

As for `C#CCN(C)[C@H](C)Cc1ccccc1` [Selegiline], in data set [1] (Drosophila melanogaster, po, dose .0002 mg/ml, read-out: S increased (S = AON symptom free adult time span)), the change in vivo at 0.2 µg/mL was found to be 200%. For the same compound, the change in vivo at 20 µg/mL in data set [1] (Drosophila melanogaster, po, dose .02 mg/ml, read-out: S increased (S = AON symptom free adult time span)) turned out to be 100%. For the same compound, the L.D. result in data set [1] (dose 2 mg/ml) was “L.D. 100”. Besides, the “L.D., AON class only” value in data set [1] (dose .2 mg/ml, AON class only) was “only, L.D. 95,”. In addition, in data set [1] (dose .2 mg/ml, escapers), the “result (effect on AON phenotype)” value was “No Effect”.

`Nc1c2c(nc3ccccc13)CCCC2` [Tacrine]: in data set [1] (setting [3]), the change in vivo at 0.5 µg/mL turned out to be 100%.

`OC(CCN1CCCCC1)(c1ccccc1)C1CCCCC1` (centres unmarked) [Trihexyphenidyl]: in data set [1] (setting [3]), the change in vivo at 100 µg/mL was around 25% and the change in vivo at 1000 µg/mL worked out at 33%.

Take `[Cl-].[Cl-].[Zn+2]` [Zinc, zinc chloride]: the “effect on the AON condition” value in data set [1] (higher concentrations, 50-100 μgrams/ml of nutrient media, oral) is listed as “exacerbated the AON condition”. In addition, the “effect on the mutant AON fly strain” value in data set [1] (low concentrations, 10-20 μgrams/ml of nutrient media, oral) was “no effect was observed”.

Turning to `CCCN1C[C@H](CSC)C[C@@H]2c3cccc4[nH]cc(c34)C[C@H]21` [pergolide], in data set [1] (dose not stated), the “effect in the AON fly drug screening” value was “did not show any effect”.

For the compound `[Cl-].[Na+]` [sodium chloride], the “effect on the AON phenotype in the mutant fly strain” value in data set [1] (oral, dose not stated) is listed as “no effect”.

For the compound beta-estradiol [Estrogen], the “effect on the AON condition in the mutant fly strain” value in data set [1] (administered orally) is “alleviates the AON condition”. Also, the “Phenotype AON + E” value in data set [1] (age of adult 0-1 hours) and in data set [1] (age of adult 1-3 hours) was “None” in each case. Also, the “D increased (D = life span)” value in data set [1] (dose 5 mg/ml) is “increased 68%”. In addition, the “S increased (S = AON symptom free adult time span)” value in data set [1] (dose 5 mg/ml) was 100%, D; in data set [1] (dose .5 mg/ml), 200%. Also, the “Phenotype Wt + E” value in data set [2] (age of adult 0-1 hours), in data set [2] (age of adult 1-3 hours), in data set [2] (age of adult 3-24 hours), in data set [2] (age of adult 24-36 hours), in data set [2] (age of adult 36-72 hours) and in data set [2] (age of adult 72-144 hours) was “None” throughout. Moreover, in data set [2] (age of adult 144+ hours), the “Phenotype Wt + E” value is reported as “None”.
